Data published in article PMC8379219 (Nature Communications, 2021).
Where “and” joins values, the source holds several entries; their conditions need not be identical. Equal entries are not always repeated. Entries after “also recorded” stand apart in the source; their conditions may differ. Where two headings read alike, the source gives them in different places.

Tests used:
SERT [1] = target: T1, SERT (Homo sapiens, UniProt P31645); assay: [3H]IMI dissociation from SERT by VLZ in absence or presence of 10 µM Fab fragment; assay type: binding; settings: for Fab fragment VLZ allostery w [3H]IMI Dissoc (Suppl. Fig 3A): ctrl = 1
T1 construct: expressed in transfected cells; host or cells: membranes of COS-7 cells, transient transfection

SERT [2] = target: T1, SERT; assay: [3H]S-CIT dissociation from SERT by VLZ in absence or presence of 10 µM Fab fragment; assay type: binding
SERT WT [3] = target: T2, SERT WT (Homo sapiens, UniProt P31645)
SERT Y95F = SERT Y95F (Homo sapiens, UniProt P31645, Y95F)
SERT S438T = SERT S438T (Homo sapiens, UniProt P31645, S438T)
SERT WT [4] = target: T2, SERT WT; remark: listed apart in the source
SERT WT [5] = target: T2, SERT WT; settings: Log[VLZ] (M) -4; ctrl = 1; replicates
SERT WT [6] = target: T2, SERT WT; assay: [3H]IMI dissociation rate assay (allosteric potency), COS-7 membranes; assay type: binding; parameters: expressed in transfected cells; host or cells: COS-7;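 also: radioligand pre-bound 30 min at room temperature to equilibrium, then dissociation followed over 5–70 min, ended by filtration through GF/B filters, at least three independent experiments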

Sequence of SERT Y95F (P31645 whole entry Y95F): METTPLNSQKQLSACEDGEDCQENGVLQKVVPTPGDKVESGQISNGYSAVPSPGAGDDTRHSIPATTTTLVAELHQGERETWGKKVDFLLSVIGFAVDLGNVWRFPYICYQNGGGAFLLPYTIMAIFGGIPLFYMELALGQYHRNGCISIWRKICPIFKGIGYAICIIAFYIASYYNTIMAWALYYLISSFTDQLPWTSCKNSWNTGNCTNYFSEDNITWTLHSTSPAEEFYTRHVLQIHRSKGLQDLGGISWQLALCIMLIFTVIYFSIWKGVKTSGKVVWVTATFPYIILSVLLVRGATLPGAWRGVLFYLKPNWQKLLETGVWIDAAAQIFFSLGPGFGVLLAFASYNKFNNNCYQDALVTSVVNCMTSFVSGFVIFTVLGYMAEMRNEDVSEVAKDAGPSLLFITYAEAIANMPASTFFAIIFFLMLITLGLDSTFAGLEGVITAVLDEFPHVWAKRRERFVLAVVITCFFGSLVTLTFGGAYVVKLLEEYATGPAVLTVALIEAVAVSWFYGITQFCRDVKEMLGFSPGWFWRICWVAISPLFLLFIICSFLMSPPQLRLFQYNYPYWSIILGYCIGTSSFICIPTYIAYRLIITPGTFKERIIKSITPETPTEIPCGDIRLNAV
T1 sequence (P31645 whole entry, the tested form may be a part): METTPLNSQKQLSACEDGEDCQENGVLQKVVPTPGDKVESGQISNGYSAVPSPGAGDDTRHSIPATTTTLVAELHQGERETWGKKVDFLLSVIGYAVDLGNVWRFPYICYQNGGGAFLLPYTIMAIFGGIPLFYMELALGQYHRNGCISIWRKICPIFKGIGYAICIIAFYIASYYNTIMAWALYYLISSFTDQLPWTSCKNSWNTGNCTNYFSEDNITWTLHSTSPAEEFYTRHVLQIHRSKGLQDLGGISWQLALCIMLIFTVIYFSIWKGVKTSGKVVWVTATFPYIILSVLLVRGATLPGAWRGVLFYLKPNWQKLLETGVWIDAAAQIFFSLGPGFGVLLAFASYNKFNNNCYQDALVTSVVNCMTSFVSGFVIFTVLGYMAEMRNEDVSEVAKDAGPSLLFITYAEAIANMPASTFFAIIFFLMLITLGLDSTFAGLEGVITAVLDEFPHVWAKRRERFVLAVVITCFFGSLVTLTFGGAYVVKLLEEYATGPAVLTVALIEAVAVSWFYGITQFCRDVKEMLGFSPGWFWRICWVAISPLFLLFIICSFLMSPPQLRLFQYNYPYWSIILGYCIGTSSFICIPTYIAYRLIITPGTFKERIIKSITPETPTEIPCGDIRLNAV
T2 sequence (P31645 whole entry): as the sequence (P31645 whole entry, the tested form may be a part) above
Sequence of SERT S438T (P31645 whole entry S438T): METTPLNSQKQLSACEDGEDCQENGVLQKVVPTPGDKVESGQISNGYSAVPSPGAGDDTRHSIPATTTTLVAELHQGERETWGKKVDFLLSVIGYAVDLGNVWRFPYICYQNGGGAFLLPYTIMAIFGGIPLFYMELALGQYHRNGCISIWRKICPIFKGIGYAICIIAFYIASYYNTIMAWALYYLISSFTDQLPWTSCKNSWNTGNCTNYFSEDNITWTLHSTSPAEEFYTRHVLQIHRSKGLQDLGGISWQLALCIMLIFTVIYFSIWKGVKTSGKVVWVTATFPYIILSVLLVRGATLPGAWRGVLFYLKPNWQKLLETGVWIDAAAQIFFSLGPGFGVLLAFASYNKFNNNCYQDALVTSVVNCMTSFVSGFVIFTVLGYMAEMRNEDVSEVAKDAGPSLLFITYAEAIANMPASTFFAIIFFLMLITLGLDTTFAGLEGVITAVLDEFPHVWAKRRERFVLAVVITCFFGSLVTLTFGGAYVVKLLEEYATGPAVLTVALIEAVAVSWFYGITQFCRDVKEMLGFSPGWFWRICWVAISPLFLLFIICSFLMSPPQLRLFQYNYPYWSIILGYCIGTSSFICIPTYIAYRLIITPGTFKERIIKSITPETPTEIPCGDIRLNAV

N#Cc1ccc2[nH]cc(CCCCN3CCN(c4ccc5oc(C(N)=O)cc5c4)CC3)c2c1 [VLZ, Vilazodone]
Effect of Fab fragment on allosteric potency of VLZ ([3H]IMI dissociation) (SERT [1]; 10 µM Fab, n = 1): no apparent effect; also recorded: unaffected
Fab fragment VLZ allostery w [3H]IMI Dissoc (Suppl. Fig 3A) (SERT [1]; SERT WT, Log[VLZ] (M) -6): 0
Fab fragment VLZ allostery w [3H]IMI Dissoc (Suppl. Fig 3A) (SERT [1]; SERT WT, Log[VLZ] (M) -7.34): 0.0851
Fab fragment VLZ allostery w [3H]IMI Dissoc (Suppl. Fig 3A) (SERT [1]; SERT WT, Log[VLZ] (M) -7.817): 0.2902
Fab fragment VLZ allostery w [3H]IMI Dissoc (Suppl. Fig 3A) (SERT [1]; SERT WT, Log[VLZ] (M) -8.294): 0.4378
Fab fragment VLZ allostery w [3H]IMI Dissoc (Suppl. Fig 3A) (SERT [1]; w. Fab fragment, Log[VLZ] (M) -6): 0
Fab fragment VLZ allostery w [3H]IMI Dissoc (Suppl. Fig 3A) (SERT [1]; w. Fab fragment, Log[VLZ] (M) -7.34): 0.077
Fab fragment VLZ allostery w [3H]IMI Dissoc (Suppl. Fig 3A) (SERT [1]; w. Fab fragment, Log[VLZ] (M) -7.817): 0.2744
Fab fragment VLZ allostery w [3H]IMI Dissoc (Suppl. Fig 3A) (SERT [1]; w. Fab fragment, Log[VLZ] (M) -8.294): 0.5049
Effect of Fab fragment on allosteric potency of VLZ ([3H]S-CIT dissociation) (SERT [2]; 10 µM Fab, n = 1): no apparent effect; also recorded: unaffected
Fab fragment VLZ allostery w [3H]S-CIT Dissoc (Suppl. Fig 3B) (SERT [2]; SERT WT, Log[VLZ] (M) -4, ctrl 0.9997): 0
Fab fragment VLZ allostery w [3H]S-CIT Dissoc (Suppl. Fig 3B) (SERT [2]; SERT WT, Log[VLZ] (M) -6.046, ctrl 0.9997): 0.25
Fab fragment VLZ allostery w [3H]S-CIT Dissoc (Suppl. Fig 3B) (SERT [2]; SERT WT, Log[VLZ] (M) -6.523, ctrl 0.9997): 0.5086
Fab fragment VLZ allostery w [3H]S-CIT Dissoc (Suppl. Fig 3B) (SERT [2]; SERT WT, Log[VLZ] (M) -7, ctrl 0.9997): 0.7481
Fab fragment VLZ allostery w [3H]S-CIT Dissoc (Suppl. Fig 3B) (SERT [2]; w. Fab fragment, Log[VLZ] (M) -6.046, ctrl 0.9993): 0.2288
Fab fragment VLZ allostery w [3H]S-CIT Dissoc (Suppl. Fig 3B) (SERT [2]; w. Fab fragment, Log[VLZ] (M) -6.523, ctrl 0.9993): 0.3777
Fab fragment VLZ allostery w [3H]S-CIT Dissoc (Suppl. Fig 3B) (SERT [2]; w. Fab fragment, Log[VLZ] (M) -7, ctrl 0.9993): 0.7313
Hill slope for inhibition of [3H]5-HT uptake (SERT WT [3]): ~ 2
[3H]5-HT uptake inhibition (SERT WT [3]; Log[VLZ] (M) -7.5): 2.2056 and 2.462 and 3.034 and 2.528
[3H]5-HT uptake inhibition (SERT WT [3]; Log[VLZ] (M) -9.5): 92.7238
[3H]5-HT uptake inhibition (SERT WT [3]; Log[VLZ] (M) -10): 95.9437
[3H]5-HT uptake inhibition (SERT WT [3]; Log[VLZ] (M) -10.5): 103.235
[3H]5-HT uptake inhibition (SERT WT [3]; Log[VLZ] (M) -11): 103.321 and 85.9044
[3H]5-HT uptake inhibition S1 Mutants (SERT Y95F; Log[VLZ] (M) -7.5): 2.147 and 2.505 and 1.589 and 2.318
[3H]5-HT uptake inhibition S1 Mutants (SERT Y95F; Log[VLZ] (M) -8): 11.0058 and 6.5 and 7.569
[3H]5-HT uptake inhibition S1 Mutants (SERT Y95F; Log[VLZ] (M) -8.5): 23.4424 and 34.8885 and 39.8853 and 24.3563
[3H]5-HT uptake inhibition S1 Mutants (SERT Y95F; Log[VLZ] (M) -9): 48.3194 and 75.9314 and 68.9865 and 51.2725
[3H]5-HT uptake inhibition S1 Mutants (SERT Y95F; Log[VLZ] (M) -9.5): 92.5116 and 89.0566
[3H]5-HT uptake inhibition S1 Mutants (SERT Y95F; Log[VLZ] (M) -10): 97.9526 and 106.373 and 93.3855 and 88.0755
[3H]5-HT uptake inhibition S1 Mutants (SERT Y95F; Log[VLZ] (M) -10.5): 100.1 and 92.5093 and 97.0473 and 106.269
[3H]5-HT uptake inhibition S1 Mutants (SERT Y95F; Log[VLZ] (M) -11): 98.0826 and 93.7606
[3H]5-HT uptake inhibition S1 Mutants (SERT Y95F; Log[VLZ] (M) -12): 96.3138 and 97.3606 and 96.312 and 100.229
[3H]5-HT uptake inhibition S1 Mutants (SERT S438T; Log[VLZ] (M) -8): 14.775 and 11.8665 and 12.0164 and 12.3243
[3H]5-HT uptake inhibition S1 Mutants (SERT S438T; Log[VLZ] (M) -8.5): 41.3444 and 41.8738 and 54.9583 and 30.416
[3H]5-HT uptake inhibition S1 Mutants (SERT S438T; Log[VLZ] (M) -9): 69.6167 and 63.3209 and 84.8416 and 54.068
[3H]5-HT uptake inhibition S1 Mutants (SERT S438T; Log[VLZ] (M) -9.5): 80.1053
[3H]5-HT uptake inhibition S1 Mutants (SERT S438T; Log[VLZ] (M) -10): 87.6994 and 103.115 and 83.4593
[3H]5-HT uptake inhibition S1 Mutants (SERT S438T; Log[VLZ] (M) -10.5): 92.1556 and 93.2014 and 102.815 and 97.2843
[3H]5-HT uptake inhibition S1 Mutants (SERT S438T; Log[VLZ] (M) -11): 102.782 and 106.151 and 94.1598
[3H]5-HT uptake inhibition S1 Mutants (SERT S438T; Log[VLZ] (M) -12): 100.15 and 89.7676 and 98.9977
[3H]S-CIT binding inhibition (SERT WT [4]; Log[VLZ] (M) -6): 6.1374 and 6.267 and 9.306 and 7.924
[3H]S-CIT binding inhibition (SERT WT [4]; Log[VLZ] (M) -7): 15.0029 and 12.5666 and 12.6935 and 13.2177 and 16.0372 and 22.3569
[3H]S-CIT binding inhibition (SERT WT [4]; Log[VLZ] (M) -8): 20.242 and 17.0122 and 17.5714 and 27.4498 and 22.8662
[3H]S-CIT binding inhibition (SERT WT [4]; Log[VLZ] (M) -9.5): 93.155 and 87.0219 and 91.9361 and 94.5429
[3H]S-CIT binding inhibition (SERT WT [4]; Log[VLZ] (M) -10): 90.7785 and 92.3382 and 88.1671 and 94.4965
[3H]S-CIT binding inhibition (SERT WT [4]; Log[VLZ] (M) -11): 106.327 and 106.337 and 110.336 and 113.218 and 118.473 and 111.36
[3H]S-CIT binding inhibition (SERT WT [4]; Log[VLZ] (M) -12): 92.524 and 93.4609 and 92.9453 and 86.9585 and 90.0353
VLZ Allosteric Potency SERT WT, [3H]S-CIT dissociation (Fig. 2C) (SERT WT [5]): 0
[3H]IMI dissociation (Fig. 2B) (SERT WT [6]; 0.5 nM, time 5 min): 98.1806
[3H]IMI dissociation (Fig. 2B) (SERT WT [6]; 0.5 nM, time 10 min): 95.2605
[3H]IMI dissociation (Fig. 2B) (SERT WT [6]; 0.5 nM, time 15 min): 95.3158
[3H]IMI dissociation (Fig. 2B) (SERT WT [6]; 0.5 nM, time 20 min): 91.8569
[3H]IMI dissociation (Fig. 2B) (SERT WT [6]; 0.5 nM, time 30 min): 86.7456
[3H]IMI dissociation (Fig. 2B) (SERT WT [6]; 0.5 nM, time 50 min): 81.092
[3H]IMI dissociation (Fig. 2B) (SERT WT [6]; 0.5 nM, time 70 min): 71.6978
[3H]IMI dissociation (Fig. 2B) (SERT WT [6]; 1.6 nM, time 5 min): 98.6368
[3H]IMI dissociation (Fig. 2B) (SERT WT [6]; 1.6 nM, time 10 min): 97.1109
[3H]IMI dissociation (Fig. 2B) (SERT WT [6]; 1.6 nM, time 15 min): 94.6142
[3H]IMI dissociation (Fig. 2B) (SERT WT [6]; 1.6 nM, time 20 min): 91.8363
